Patent US9051313B2, “Apoptosis signal-regulating kinase inhibitors” (Gilead Sciences, Inc., priority 2012, dated 2015)

Tests used:
[1] = target: ASK1 (kinase active, 631-1381 of rat ASK1 cDNA) in 293/AP1-Luc cells (Rattus norvegicus, UniProt A0A8I6AEL0); assay: ASK1 293 cell-based assay (Cellular EC50), AP-1:luciferase reporter; conditions: 293/AP1-Luc cells infected with adenovirus expressing ASK1, 24 hours
Protocol: ASK1 (Apoptosis Signal-Regulating Kinase 1) 293 cell-based assay (Cellular EC50)
The cellular potency of compounds was assayed in cells stably expressing an AP-1: luciferase reporter construct (293/AP1-Luc cells—Panomics Inc., 6519 Dumbarton Circle, Fremont, Calif.). Cells were infected with an adenovirus expressing kinase active ASK1 (631-1381 of rat ASK1 cDNA), which will activate the AP-1 transcription factor and increase the expression of luciferase. Inhibitors of ASK1 will decrease the enzyme activity of ASK1 and therefore decrease the activity of AP-1 transcription factor and the expression of luciferase.
2. Reference Materials • 1. Panomics 293/AP1-Luc stable cell-line product insert. • 2. Promega Steady-Glo Luciferase Assay System product insert. 3. Media Required 3. Complete Growth Medium, “CGM” • a. DMEM (MediaTech) • b. 10% FBS • c. 1% PSG • d. 100 ug/mL HygromycinB 4. Assay Medium, “AM” • a. DMEM (Invitrogen) • b. 25 mM HEPES • c. 1 mM Sodium Pyruvate • d. 1% PSG 4. Methods Maintenance: • 1. 293/AP1-Luc Maintain 293/Acells per vendor's instructions; harvest cells at ˜80% confluence in T150 flasks as follows: • a. Aspirate media, wash gently with ˜12 mL sterile D-PBS, aspirate. • b. Add 5 mL Trypsin-EDTA, tilt gently to coat flask, and incubate ˜5 min. at 37° C. • c. […] Aspirate media from cell pellet, add 20 to 30 mL CGM, resuspend pellet by pipeting 6×, pass through cell strainer to disperse clumps (if necessary), and count cells with hemocytometer. Assay Day 1: 2. Harvest cells as above, except resuspend cell pellet. Count cells and dilute to 1.5×10^5 cells per mL; add adenovirus such that there are 5 infectious forming units per cell. 3. Prime (20 to 30 mL) and plate cells in Greiner poly-D-Lysine coated 384-well plates at 1.2×10^4 cells per well using BioTek uFill (80 uL per well). 4. Immediately dose plates with 0.4 uL of compound dose series (in 100% DMSO) incubate 24 hours in humidified incubator (37° C., 5% CO2). Assay Day 2: 5. Process plates (per manufacturer's instructions) as follows: • a. Set plates in laminar flow hood & uncover for 30 minutes at room temperature to cool. • b. Remove 60 uL of AM from assay wells • c. Add 20 uL per well Steady-Glo Firefly substrate, let sit for 10-20 minutes at room temperature • d. Cover bottom of assay plates with white backing tape. • e. Acquire data on a […] plate reader

[2] = target: recombinant human ASK1 kinase (Homo sapiens (Human), UniProt Q99683); assay: TR-FRET ASK1 kinase assay (HTRF KinEASE-STK); format: biochemical
Source text: Dephosphorylated recombinant human ASK1 kinase was from Gilead Sciences. […] ATP (catalogue # 7724) was from Affymetrix (Santa Clara, Calif.) and test compounds were from Gilead Sciences. HTRF KinEASE™-STK S3 kit was obtained from Cisbio (Bedford, Mass.). All other reagents were of the highest grade commercially available. The assay measures the phosphorylation level of a biotinylated peptide substrate by the ASK1 kinase using HTRF detection (6.1). This is a competitive, time-resolved fluorescence resonance energy transfer (TR-FRET) immunoassay, based on HTRF® KinEASE™-STK manual from Cisbio (6.1). […] Peptide antibody labeled with 1× Eu^3+ Cryptate buffer containing 10 mM EDTA and 125 nM Streptavidin XL665 are added to stop the reaction and phosphorylated peptide substrate is detected using Envision 2103 Multilabeled reader from PerkinElmer. The fluorescence is measured at 615 nm (Cryptate) and 665 nm (XL665) and a ratio of 665 nm/615 nm is calculated for each well. The resulting TR-FRET level (a ratio of 665 nm/615 nm) is proportional to the phosphorylation level. Under these assay conditions, the degree of phosphorylation of peptide substrate was linear with time and concentration for the enzyme. The assay system yielded consistent results with regard to Km and specific activities for the enzyme. For inhibition experiments (IC50 values), activities were performed with constant concentrations of ATP, peptide and several fixed concentrations of inhibitors. […] All enzyme activity data are reported as an average of quadruplicate determination. […] Enzyme activity is expressed as the amount of Phosphate incorporated into substrate peptide from ATP. Range is the maximum y range (no inhibitor, DMSO control) and s is a slope factor (6.2). Results

[3] = TR-FRET, 100 μM ATP, 4 nM ASK1 kinase, average of quadruplicate
[4] = Compounds 6-17, same competitive TR-FRET immunoassay

Sequence of recombinant human ASK1 kinase (Q99683 whole entry): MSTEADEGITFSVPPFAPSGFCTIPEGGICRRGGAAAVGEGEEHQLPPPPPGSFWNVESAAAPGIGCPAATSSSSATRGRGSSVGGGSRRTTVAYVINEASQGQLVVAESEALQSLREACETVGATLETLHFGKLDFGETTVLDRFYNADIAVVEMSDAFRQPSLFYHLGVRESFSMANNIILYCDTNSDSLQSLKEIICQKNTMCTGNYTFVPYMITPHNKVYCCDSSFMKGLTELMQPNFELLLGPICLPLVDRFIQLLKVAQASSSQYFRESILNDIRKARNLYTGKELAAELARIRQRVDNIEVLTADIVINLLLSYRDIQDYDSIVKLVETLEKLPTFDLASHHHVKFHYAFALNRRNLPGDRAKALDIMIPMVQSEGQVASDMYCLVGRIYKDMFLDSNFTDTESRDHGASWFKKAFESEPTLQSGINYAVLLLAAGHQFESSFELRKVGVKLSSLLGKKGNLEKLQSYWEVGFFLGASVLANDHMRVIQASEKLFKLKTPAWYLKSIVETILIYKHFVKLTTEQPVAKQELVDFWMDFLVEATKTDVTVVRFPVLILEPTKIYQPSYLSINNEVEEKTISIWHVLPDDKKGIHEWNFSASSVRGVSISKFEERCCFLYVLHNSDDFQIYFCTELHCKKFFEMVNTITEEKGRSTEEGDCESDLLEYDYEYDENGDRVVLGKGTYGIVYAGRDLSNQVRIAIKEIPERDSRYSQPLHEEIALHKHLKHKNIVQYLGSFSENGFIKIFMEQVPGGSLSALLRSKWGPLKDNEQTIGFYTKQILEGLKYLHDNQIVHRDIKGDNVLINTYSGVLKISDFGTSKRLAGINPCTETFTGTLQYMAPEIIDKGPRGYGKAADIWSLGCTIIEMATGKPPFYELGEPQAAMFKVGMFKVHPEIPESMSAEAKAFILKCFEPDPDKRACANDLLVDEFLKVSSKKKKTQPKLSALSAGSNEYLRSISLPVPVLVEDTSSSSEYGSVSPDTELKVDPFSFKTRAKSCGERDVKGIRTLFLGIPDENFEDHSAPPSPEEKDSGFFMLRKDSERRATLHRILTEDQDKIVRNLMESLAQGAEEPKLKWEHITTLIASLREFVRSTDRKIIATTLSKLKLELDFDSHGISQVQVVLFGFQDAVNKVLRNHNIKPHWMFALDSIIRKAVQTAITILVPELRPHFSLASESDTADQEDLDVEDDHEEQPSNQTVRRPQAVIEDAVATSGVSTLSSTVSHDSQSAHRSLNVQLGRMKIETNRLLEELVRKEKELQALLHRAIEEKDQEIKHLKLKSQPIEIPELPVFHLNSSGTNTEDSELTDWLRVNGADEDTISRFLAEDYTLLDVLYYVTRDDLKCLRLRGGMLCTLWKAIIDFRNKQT
Sequence of ASK1 (kinase active, 631-1381 of rat ASK1 cDNA) in 293/AP1-Luc cells (A0A8I6AEL0 1-1381): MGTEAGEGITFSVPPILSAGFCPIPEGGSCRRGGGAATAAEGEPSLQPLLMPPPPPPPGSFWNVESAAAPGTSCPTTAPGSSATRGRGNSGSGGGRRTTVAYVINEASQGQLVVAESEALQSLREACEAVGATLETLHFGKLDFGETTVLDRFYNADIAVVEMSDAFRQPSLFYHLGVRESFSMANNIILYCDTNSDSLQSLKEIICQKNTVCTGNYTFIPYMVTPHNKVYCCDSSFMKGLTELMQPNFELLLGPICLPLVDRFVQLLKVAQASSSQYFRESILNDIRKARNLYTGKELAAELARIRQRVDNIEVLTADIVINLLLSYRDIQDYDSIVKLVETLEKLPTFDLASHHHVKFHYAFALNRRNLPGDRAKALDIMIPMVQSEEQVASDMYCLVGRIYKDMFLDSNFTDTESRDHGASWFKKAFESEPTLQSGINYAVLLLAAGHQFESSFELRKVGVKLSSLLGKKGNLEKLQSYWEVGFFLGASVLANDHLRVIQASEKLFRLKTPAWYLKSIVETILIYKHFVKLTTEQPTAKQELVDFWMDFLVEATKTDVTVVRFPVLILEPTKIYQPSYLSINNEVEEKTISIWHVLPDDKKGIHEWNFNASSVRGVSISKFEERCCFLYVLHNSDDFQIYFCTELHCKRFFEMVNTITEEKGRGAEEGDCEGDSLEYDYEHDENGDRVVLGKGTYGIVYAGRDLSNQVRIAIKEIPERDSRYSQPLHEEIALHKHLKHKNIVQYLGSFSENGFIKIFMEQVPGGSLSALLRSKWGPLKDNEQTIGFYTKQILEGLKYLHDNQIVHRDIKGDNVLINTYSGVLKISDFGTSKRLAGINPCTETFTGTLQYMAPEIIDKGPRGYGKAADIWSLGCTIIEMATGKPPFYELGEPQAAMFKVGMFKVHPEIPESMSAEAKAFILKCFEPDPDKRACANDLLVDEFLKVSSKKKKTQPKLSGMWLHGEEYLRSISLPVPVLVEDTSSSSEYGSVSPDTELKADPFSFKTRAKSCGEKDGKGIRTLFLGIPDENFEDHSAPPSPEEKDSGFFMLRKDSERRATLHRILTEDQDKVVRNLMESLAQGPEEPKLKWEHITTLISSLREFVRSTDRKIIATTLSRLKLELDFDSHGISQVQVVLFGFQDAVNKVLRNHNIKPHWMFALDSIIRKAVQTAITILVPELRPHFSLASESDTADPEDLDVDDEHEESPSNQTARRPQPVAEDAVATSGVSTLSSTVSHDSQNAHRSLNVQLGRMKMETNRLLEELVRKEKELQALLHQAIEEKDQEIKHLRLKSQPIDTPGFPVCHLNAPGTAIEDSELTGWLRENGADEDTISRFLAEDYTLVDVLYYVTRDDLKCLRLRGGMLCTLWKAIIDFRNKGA

SMILES	EC50 [1]	IC50 [2, 3]	IC50 [2, 4]
O=C(Nc1csc(-c2nncn2C2CC2)n1)c1cc(-n2cnc(C3CC3)c2)c(N2CCOCC2)cn1 [Example 1, 4-(4-cyclopropyl-1H-imidazol-1-yl)-N-(2-(4-cyclopropyl-4H-1,2,4-triazol-3-yl)thiazol-4-yl)-5-morpholinopicolinamide]	13.2 nM	1.44 nM	–
CC1(O)CN(c2cnc(C(=O)Nc3csc(-c4nncn4C4CC4)n3)cc2-n2cnc(C3CC3)c2)C1 [Example 2, 4-(4-cyclopropyl-1H-imidazol-1-yl)-N-(2-(4-cyclopropyl-4H-1,2,4-triazol-3-yl)thiazol-4-yl)-5-(3-hydroxy-3-methylazetidin-1-yl)picolinamide]	11.2 nM	1.58 nM	–
C[C@H](n1cnnc1-c1nc(NC(=O)c2cc(-n3cnc(C4CC4)c3)c(N3CCOCC3)cn2)cs1)C(F)(F)F [Example 3, (S)-4-(4-cyclopropyl-1H-imidazol-1-yl)-5-morpholino-N-(2-(4-(1,1,1-trifluoropropan-2-yl)-4H-1,2,4-triazol-3-yl)thiazol-4-yl)picolinamide]	6.74 nM	2.62 nM	–
C[C@H](n1cnnc1-c1nc(NC(=O)c2cc(-n3cnc(C4CC4)c3)c(N3CC(C)(O)C3)cn2)cs1)C(F)(F)F [Example 4, (S)-4-(4-cyclopropyl-1H-imidazol-1-yl)-5-(3-hydroxy-3-methylazetidin-1-yl)-N-(2-(4-(1,1,1-trifluoropropan-2-yl)-4H-1,2,4-triazol-3-yl)thiazol-4-yl)picolinamide]	5.21 nM	1.69 nM	–
C[C@H](n1cnnc1-c1nc(NC(=O)c2cc(-n3cnc(C4CC4)c3)c(N(C)C)cn2)cs1)C(F)(F)F [Example 5, (S)-4-(4-cyclopropyl-1H-imidazol-1-yl)-5-(dimethylamino)-N-(2-(4-(1,1,1-trifluoropropan-2-yl)-4H-1,2,4-triazol-3-yl)thiazol-4-yl)picolinamide]	7.12 nM	1.88 nM	–
O=C(Nc1csc(-c2nncn2C2CC2)n1)c1cc(-n2cnc(C3CC3)c2)c(N2CCC2)cn1 [Example 6, 5-(azetidin-1-yl)-4-(4-cyclopropylimidazol-1-yl)-N-[2-(4-cyclopropyl-1,2,4-triazol-3-yl)-1,3-thiazol-4-yl]pyridine-2-carboxamide]	–	–	2.4 nM
C[C@H](n1cnnc1-c1nc(NC(=O)c2cc(-n3cnc(C4CC4)c3)c(N3CCC3)cn2)cs1)C(F)(F)F [Example 7, (S)-5-(azetidin-1-yl)-4-(4-cyclopropyl-1H-imidazol-1-yl)-N-(2-(4-(1,1,1-trifluoropropan-2-yl)-4H-1,2,4-triazol-3-yl)thiazol-4-yl)picolinamide]	–	–	1.7 nM
C[C@H](n1cnnc1-c1nc(NC(=O)c2cc(-n3cnc(C4CC4)c3)c(N3CCCC3)cn2)cs1)C(F)(F)F [Example 8, (S)-4-(4-cyclopropyl-1H-imidazol-1-yl)-5-(pyrrolidin-1-yl)-N-(2-(4-(1,1,1-trifluoropropan-2-yl)-4H-1,2,4-triazol-3-yl)thiazol-4-yl)picolinamide]	–	–	2.2 nM
O=C(Nc1csc(-c2nncn2C2CC2)n1)c1cc(-n2cnc(C3CC3)c2)c(N2CCCC2)cn1 [Example 9, 4-(4-cyclopropylimidazol-1-yl)-N-[2-(4-cyclopropyl-1,2,4-triazol-3-yl)-1,3-thiazol-4-yl]-5-pyrrolidin-1-ylpyridine-2-carboxamide]	–	–	1.9 nM
O=C(Nc1csc(-c2nncn2C2CC2)n1)c1cc(-n2cnc(C3CC3)c2)c(N2CCC(O)C2)cn1 (stereo not shown) [Example 10, 4-(4-cyclopropylimidazol-1-yl)-N-[2-(4-cyclopropyl-1,2,4-triazol-3-yl)-1,3-thiazol-4-yl]-5-(3-hydroxypyrrolidin-1-yl)pyridine-2-carboxamide]	–	–	3 nM
C[C@H](n1cnnc1-c1nc(NC(=O)c2cc(-n3cnc(C4CC4)c3)c(N3CCC(O)C3)cn2)cs1)C(F)(F)F (stereo partly drawn) [Example 11, 4-(4-cyclopropyl-1H-imidazol-1-yl)-5-(3-hydroxypyrrolidin-1-yl)-N-(2-(4-((S)-1,1,1-trifluoropropan-2-yl)-4H-1,2,4-triazol-3-yl)thiazol-4-yl)picolinamide]	–	–	2.2 nM

Second part, the compound after the results:

EC50 [1]	IC50 [2, 3]	IC50 [2, 4]	SMILES
–	–	2 nM	O=C(Nc1csc(-c2nncn2C2CC2)n1)c1cc(-n2cnc(C3CC3)c2)c(N2CCCCC2)cn1 [Example 12, 4-(4-cyclopropylimidazol-1-yl)-N-[2-(4-cyclopropyl-1,2,4-triazol-3-yl)-1,3-thiazol-4-yl]-5-piperidin-1-ylpyridine-2-carboxamide]
–	–	0.7 nM	C[C@H](n1cnnc1-c1nc(NC(=O)c2cc(-n3cnc(C4CC4)c3)c(N3CCCCC3)cn2)cs1)C(F)(F)F [Example 13, (S)-4-(4-cyclopropyl-1H-imidazol-1-yl)-5-(piperidin-1-yl)-N-(2-(4-(1,1,1-trifluoropropan-2-yl)-4H-1,2,4-triazol-3-yl)thiazol-4-yl)picolinamide]
–	–	1.8 nM	C[C@H](n1cnnc1-c1nc(NC(=O)c2cc(-n3cnc(C4CC4)c3)c(N3CCC(C)(O)CC3)cn2)cs1)C(F)(F)F [Example 14, (S)-4-(4-cyclopropyl-1H-imidazol-1-yl)-5-(4-hydroxy-4-methylpiperidin-1-yl)-N-(2-(4-(1,1,1-trifluoropropan-2-yl)-4H-1,2,4-triazol-3-yl)thiazol-4-yl)picolinamide]
–	–	2.5 nM	CC1(O)CCN(c2cnc(C(=O)Nc3csc(-c4nncn4C4CC4)n3)cc2-n2cnc(C3CC3)c2)CC1 [Example 15, 4-(4-cyclopropylimidazol-1-yl)-N-[2-(4-cyclopropyl-1,2,4-triazol-3-yl)-1,3-thiazol-4-yl]-5-(4-hydroxy-4-methylpiperidin-1-yl)pyridine-2-carboxamide]
–	–	2.1 nM	C[C@H](n1cnnc1-c1nc(NC(=O)c2cc(-n3cnc(C4CC4)c3)c(N3CCN(C)CC3)cn2)cs1)C(F)(F)F [Example 16, (S)-4-(4-cyclopropyl-1H-imidazol-1-yl)-5-(4-methylpiperazin-1-yl)-N-(2-(4-(1,1,1-trifluoropropan-2-yl)-4H-1,2,4-triazol-3-yl)thiazol-4-yl)picolinamide]
–	–	3.1 nM	CN1CCN(c2cnc(C(=O)Nc3csc(-c4nncn4C4CC4)n3)cc2-n2cnc(C3CC3)c2)CC1 [Example 17, 4-(4-cyclopropylimidazol-1-yl)-N-[2-(4-cyclopropyl-1,2,4-triazol-3-yl)-1,3-thiazol-4-yl]-5-(4-methylpiperazin-1-yl)pyridine-2-carboxamide]
